{"source": "patent US4342827A", "about": "“Production of enzymes” (Public Health Laboratory Service, Center for Applied …, priority 1978, dated 1982)"}
{"molecular_target": "T1, glycerol dehydrogenase (GDH) (Geobacillus stearothermophilus, UniProt P32816)", "T1 construct": "crude, partially or highly purified (DEAE-cellulose, triazine dye-agarose, gel filtration)", "T1 sequence (P32816 whole entry)": "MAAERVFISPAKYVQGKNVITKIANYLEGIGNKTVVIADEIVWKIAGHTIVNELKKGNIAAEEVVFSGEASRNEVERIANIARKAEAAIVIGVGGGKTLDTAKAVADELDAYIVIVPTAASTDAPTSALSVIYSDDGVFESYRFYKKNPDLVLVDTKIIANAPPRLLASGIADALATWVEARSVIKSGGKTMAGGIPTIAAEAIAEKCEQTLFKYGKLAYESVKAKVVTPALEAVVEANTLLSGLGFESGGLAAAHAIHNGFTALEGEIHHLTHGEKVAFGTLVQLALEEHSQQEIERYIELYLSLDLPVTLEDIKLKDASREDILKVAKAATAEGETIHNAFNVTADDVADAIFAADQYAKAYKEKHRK", "assay": "GDH assay against analogous substrates, activities (Vmax) relative to glycerol", "format": "biochemical, Bacillus stearothermophilus", "settings": "30° C., pH 8.5; substrate instead of glycerol", "protocol": "(§1) The thermostable GDH enzymes produced from the strains of Bacillus stearothermophilus described above typically have a structure composed of four identical or similar sub-units each of molecular weight about 60,000 giving an overall molecular weight of about 240,000±30,000 daltons. When homogeneous and tested by the assay method described below they have a specific activity of at least 5 and normally about 10 to 30 units per mg protein at 30° C. and pH 8.5. When tested under similar conditions against analogous substrates the activities (Vmax) relative to glycerol (100%) were:\n(§2) Assays for GDH activity were carried out by the following procedure and all references to activities in the present description and claims refer to activity as measured by this assay.\n(§3) (i) 0.25 M Triethanolamine-HCl (pH 8.5).\n(§4) (iii) 10 mg/ml NAD (nicotinamide adenine dinucleotide)\n(§5) 600 μl, H2 O, 200 μl triethanolamine-HCl solution, 25 μl NAD solution and 5 to 200 μl of the sample to be assayed were mixed in a cuvette (pathlength 1 cm.). After pre-equilibration to attain 30° C., 100 μl of glycerol solution was added to initiate the reaction.\n(§6) The reduction of NAD was followed by spectrophotometric means, by observing the absorbance of the solution at 340 nm. Either a water or reagent blank was used, and units were expressed as μmoles of NADH formed per minute at 30° C. with dilution to give ΔOD340 in the range 0.06 to 0.12 per minute.", "units": {"activity (Vmax) relative to glycerol (100%)": "%"}}
{"molecule": "OCCC(O)S", "note": "(stereo not drawn) [3-mercapto-propane1, 3 diol]", "activity (Vmax) relative to glycerol (100%)": 49}
{"molecule": "O=C(CO)CO", "note": "[dihydroxyacetone]", "activity (Vmax) relative to glycerol (100%)": "< 10"}
{"molecule": "O=C(O)C(O)CO", "note": "(stereo not drawn) [glyceric acid]", "activity (Vmax) relative to glycerol (100%)": "< 10"}
{"molecule": "CC(O)CO", "note": "(stereo not drawn) [propane1, 2 diol]", "activity (Vmax) relative to glycerol (100%)": 165}
{"molecule": "OCCCO", "note": "[propane1, 3diol]", "activity (Vmax) relative to glycerol (100%)": 16}
{"molecular_target": "T1, glycerol dehydrogenase (GDH)", "assay": "GDH assay against analogous substrates, activities (Vmax) relative to glycerol", "format": "biochemical, Bacillus stearothermophilus", "settings": "high concentrations", "protocol": "as §1, §2, §3, §4, §5, §6"}
{"molecule": "N", "note": "[NH4^+ ions]", "effect on GDH activity": "inhibited"}
